{
  "source": "paper PMC10460880",
  "about": "“Cathepsin K‐Activated Probe for Fluoro‐Photoacoustic Imaging of Early Osteolytic Metastasis” (Advanced Science, 2023)",
  "key": {"[1]": {"test_system": "CTSK-overexpressing OCs on calf bone slice", "assay": "In vitro bone resorption imaging assay", "type": "cell-based, C57BL/6J mice", "details": "2-CP 50 mM, 37 °C, 30 min, then CTSK-APPA 5 μM, 2 h", "experimental": "PS. RAW 264.7 cells and BMMs were maintained in an atmosphere of 5% CO2 and 95% humidified air at 37 °C. The medium was changed every day.\nCell cytotoxicity assay. MDA-MB-231/Luc and RAW 264.7 cells were seeded in 96-well plates (5×10^3 cells per well) for 24 h and then incubated with CTSK-APPA or CTSK-APP (5, 10, 20, 50 μM) or saline for 24 h. The medium was removed and cells were incubated with CCK-8 (0.5 mg/mL) for another 1 h. The absorbance of the mixture at 450 nm was measured by using a microplate reader. Cell viability was expressed by the ratio of the absorbance of the cells incubated with the probes to that of the cells incubated with culture medium only.\nIn vitro osteoclast differentiation. Bone marrow-derived macrophages were isolated from the femurs and tibias of 4-week-old C57BL/6J mice and cultured in a complete medium containing M-CSF (30 ng/mL) for 4 days. BMMs were harvested to the 24-well plates (1×10^4 per well) and cultured in the complete medium containing M-CSF (30 ng/mL) and RANKL (100 ng/mL) for another 4 days. The osteoclasts were fixed and stained by using acid phosphatase and a leukocyte kit according to the manufacturer’s procedures.\nIn vitro bone resorption imaging assay. […]\nFluorescence images were captured by using the IVIS Spectrum imaging system with excitation […]"}, "OCs": {"test_system": "OCs", "assay": "Cell selectivity experiment, osteoclasts", "type": "cell-based", "details": "n = 3"}, "[2]": {"test_system": "MDA-MB-231/Luc-induced osteolytic metastasis", "assay": "Real-time NIR fluorescence and PA imaging of osteolytic metastasis", "type": "in vivo, BALB/c nude mice", "details": "2-CP 50 mM, 200 μL, 1 h before probe; n = 3", "experimental": "page 5: PS. RAW 264.7 cells and BMMs were maintained in an atmosphere of 5% CO2 and 95% humidified air at 37 °C. The medium was changed every day. Cell cytotoxicity assay. MDA-MB-231/Luc and RAW 264.7 cells were seeded in 96-well plates (5×10^3 cells per well) for 24 h and then incubated with CTSK-APPA or CTSK-APP (5, 10, 20, 50 μM) or saline for 24 h. The medium was removed and cells were incubated with CCK-8 (0.5 mg/mL) for another 1 h. The absorbance of the mixture at 450 nm was measured by using a microplate reader. Cell viability was expressed by the ratio of the absorbance of the cells incubated with the probes to that of the cells incubated with culture medium only. In vitro osteoclast differentiation. Bone marrow-derived macrophages were isolated from the femurs and tibias of 4-week-old C57BL/6J mice and cultured in a complete medium containing M-CSF (30 ng/mL) for 4 days. […] Fluorescence images were captured by using the IVIS Spectrum imaging system with excitation at 660 ± 10 nm and emission at 710 ± 10 nm. […] The bone marrow toxicity of CTSK-APPA and CTSK-APP was assessed by blood analyses in mice. […] The red blood count (RBC) and white blood count (WBC) were further measured. […] The supernatants containing excreted probes were quantified by using a UV-vis absorption spectrometer. […]"}},
  "data": [
    {"smiles": "N#Cc1ncccn1", "note": "[Probe 2-CP, 2-Cyanopyrimidine, reference compound]", "values": [
      {"measurement": "effect of inhibitor pre-treatment on CTSK-APPA fluorescence of bone-resorption slice", "setting": "[1]", "result": "remarkably suppressed NIR fluorescence"},
      {"measurement": "effect of inhibitor on CTSK-APPA fluorescence in OCs", "setting": "OCs", "result": "effectively reduced"},
      {"measurement": "effect of preinjected inhibitor on NIR fluorescence and PA signals of CTSK-APPA", "setting": "[2]", "result": "reduced to the CTSK‐APP levels"}
    ]}
  ]
}
